Molecules are shown by their SMILES.

Assay [1] concerns BMSC (primary human bone marrow mesenchymal stromal cells). The experiment in a line: absolute EC50 for viability; higher = less sensitive.
Assay [2] has the same test system. The experiment in a line: drug sensitivity score (DSS); higher = more sensitive.

Regarding `COc1cc([C@@H]2c3cc4c(cc3[C@@H](O[C@@H]3O[C@@H]5CO[C@@H](C)O[C@H]5[C@H](O)[C@H]3O)[C@H]3COC(=O)[C@H]23)OCO4)cc(OC)c1O` [Etoposide], the “absolute EC50 for viability” value in assay [1] is > 10000 nM. Also, the drug sensitivity score in assay [2] is 0.

For the compound `CO[C@H]1C[C@@H]2CC[C@@H](C)[C@@](O)(O2)C(=O)C(=O)N2CCCC[C@H]2C(=O)O[C@H]([C@H](C)C[C@@H]2CC[C@@H](OCCO)[C@H](OC)C2)CC(=O)[C@H](C)/C=C(\C)[C@@H](O)[C@@H](OC)C(=O)[C@H](C)C[C@H](C)/C=C/C=C/C=C/1C` [Everolimus], the “absolute EC50 for viability” value in assay [1] is > 100 nM. The same compound had a drug sensitivity score in assay [2] of 5.2.

As for `C=C1C[C@@H]2[C@H](CC[C@]3(C)C(=O)CC[C@@H]23)[C@@]2(C)C=CC(=O)C=C12` [Exemestane], in assay [1], the “absolute EC50 for viability” value was > 10000 nM. Further, the drug sensitivity score in assay [2] was 0.

For `Cc1cnc(Nc2ccc(OCCN3CCCC3)cc2)nc1Nc1cccc(S(=O)(=O)NC(C)(C)C)c1` [Fedratinib], in assay [1], the “absolute EC50 for viability” value turned out to be 1470 nM. Besides, the drug sensitivity score in assay [2] worked out at 9.3.

For `CON(C)C(=O)N1N=C(c2cc(F)ccc2F)S[C@@]1(CCCN)c1ccccc1` [Filanesib], the “absolute EC50 for viability” value in assay [1] is > 1000 nM. The drug sensitivity score in assay [2] came out at 0.

With `O=C(Nc1nc2cccc(-c3ccc(CN4CCS(=O)(=O)CC4)cc3)n2n1)C1CC1` [Filgotinib], the “absolute EC50 for viability” value in assay [1] was > 10000 nM. This compound also displayed a drug sensitivity score in assay [2] of 2.3.

For the compound `CC(C)(C)NC(=O)[C@H]1CC[C@H]2[C@@H]3CC[C@H]4NC(=O)C=C[C@]4(C)[C@H]3CC[C@]12C` [Finasteride], in assay [1], the “absolute EC50 for viability” value is > 10000 nM. For the same compound, in assay [2], the drug sensitivity score is 0.

For the compound `CCCCCCCCc1ccc(CCC(N)(CO)CO)cc1` [Fingolimod], the “absolute EC50 for viability” value in assay [1] stood at 3020 nM. In addition, in assay [2], the drug sensitivity score worked out at 5.8.

For the compound `O=c1[nH]c(=O)n([C@H]2C[C@H](O)[C@@H](CO)O2)cc1F` [Floxuridine], the “absolute EC50 for viability” value in assay [1] was > 10000 nM. This compound also displayed a drug sensitivity score in assay [2] of 0.

Regarding `O=c1[nH]cc(F)c(=O)[nH]1` [Fluorouracil], the “absolute EC50 for viability” value in assay [1] is > 10000 nM. Besides, the drug sensitivity score in assay [2] turned out to be 0.9.

As to `CC(C)C(=O)Nc1ccc([N+](=O)[O-])c(C(F)(F)F)c1` [Flutamide], the “absolute EC50 for viability” value in assay [1] was > 10000 nM. In assay [2], this compound had a drug sensitivity score of 0.

For the compound `COc1cc2c(Oc3ccc(NC(=O)C4(C(=O)Nc5ccc(F)cc5)CC4)cc3F)ccnc2cc1OCCCN1CCOCC1` [Foretinib], the “absolute EC50 for viability” value in assay [1] stood at 460 nM. This compound gave a drug sensitivity score in assay [2] of 6.

Consider `COc1cc(Nc2ncc(F)c(Nc3ccc4c(n3)N(COP(=O)(O)O)C(=O)C(C)(C)O4)n2)cc(OC)c1OC` [Fostamatinib], for which the “absolute EC50 for viability” value in assay [1] was > 2500 nM. Also, in assay [2], the drug sensitivity score was determined as 5.2.

As for `C[C@]12CC[C@@H]3c4ccc(O)cc4C[C@@H](CCCCCCCCC[S+]([O-])CCCC(F)(F)C(F)(F)F)[C@H]3[C@@H]1CC[C@@H]2O` (stereo not given in full) [Fulvestrant], the “absolute EC50 for viability” value in assay [1] is > 1000 nM. In assay [2], this compound yielded a drug sensitivity score of 0.

On to `CC1(C)OCCn2c1nc1c(N3CCOCC3)nc(-c3cnc(N)nc3)nc12` [GDC-0084], for which, in assay [1], the “absolute EC50 for viability” value came out at 644 nM. Further, the drug sensitivity score in assay [2] amounted to 13.2.

For the compound `O=C(NOCCO)c1ccc2cncn2c1Nc1ccc(I)cc1F` [GDC-0623], the “absolute EC50 for viability” value in assay [1] was > 2500 nM. Besides, the drug sensitivity score in assay [2] came to 0.

As for `C[C@H]1CN(C2COC2)CCN1c1ccc(Nc2cc(-c3ccnc(N4CCn5c(cc6c5CC(C)(C)C6)C4=O)c3CO)cn(C)c2=O)nc1` [GDC-0853], the “absolute EC50 for viability” value in assay [1] was > 1000 nM. The drug sensitivity score in assay [2] is 0.

Turning to `CNc1nc(Nc2cn(C(C)(C)C#N)nc2C)ncc1C(F)(F)F` [GNE-0877], the “absolute EC50 for viability” value in assay [1] was > 1000 nM. For the same compound, the drug sensitivity score in assay [2] stood at 0.

On to `CCNc1nc(Nc2cc(F)c(C(=O)N3CCOCC3)cc2OC)ncc1C(F)(F)F` [GNE-7915], for which the “absolute EC50 for viability” value in assay [1] is > 1000 nM. Besides, the drug sensitivity score in assay [2] is 0.

For `CCCc1cc(C)[nH]c(=O)c1CNC(=O)c1cc(-c2ccnc(N3CCN(C)CC3)c2)cc2c1cnn2C(C)C` [GSK343], the “absolute EC50 for viability” value in assay [1] is > 1000 nM. Also, in assay [2], the drug sensitivity score is 0.

On to `CCCOc1ccn2c(C(C)=O)cc(-c3ccccc3S(C)(=O)=O)c2c1` [GSK2801], for which, in assay [1], the “absolute EC50 for viability” value is > 10000 nM. This compound registered a drug sensitivity score in assay [2] of 0.

For the compound `CCOC(=O)CCNc1cc(N2CCc3ccccc3CC2)nc(-c2ccccn2)n1` [GSK-J4], in assay [1], the “absolute EC50 for viability” value worked out at 73000 nM. Further, the drug sensitivity score in assay [2] is 2.8.

Regarding `C[C@@H]1C=C2C(=O)O[C@@H]3CC[C@H](C1)[C@]23O` [Galiellalactone], in assay [1], the “absolute EC50 for viability” value was > 25000 nM. Besides, in assay [2], the drug sensitivity score came to 1.3.

Turning to `Cc1cccc(-c2nn3c(c2-c2ccnc4ccc(C(N)=O)cc24)CCC3)n1` [Galunisertib], the “absolute EC50 for viability” value in assay [1] is > 1000 nM. Also, the drug sensitivity score in assay [2] is 0.

With `Cc1cc(Nc2cc(CN3CCOCC3)c3nc(C)c(Cc4ccc(Cl)cc4F)n3n2)n[nH]1` [Gandotinib], in assay [1], the “absolute EC50 for viability” value stood at 2490 nM. The compound further showed a drug sensitivity score in assay [2] of 6.3.

In the case of `CC(C)c1cc(-c2n[nH]c(=O)n2-c2ccc3c(ccn3C)c2)c(O)cc1O` [Ganetespib], the “absolute EC50 for viability” value in assay [1] was 86.2 nM. This compound had a drug sensitivity score in assay [2] of 10.3.

`CN(C)C1CCN(C(=O)c2ccc(NC(=O)Nc3ccc(-c4nc(N5CCOCC5)nc(N5CCOCC5)n4)cc3)cc2)CC1` [Gedatolisib]: the “absolute EC50 for viability” value in assay [1] stood at 43.7 nM. For the same compound, the drug sensitivity score in assay [2] was found to be 14.3.

Take `COc1cc2ncnc(Nc3ccc(F)c(Cl)c3)c2cc1OCCCN1CCOCC1` [Gefitinib]: in assay [1], the “absolute EC50 for viability” value is > 10000 nM. Besides, the drug sensitivity score in assay [2] is 3.4.

`Nc1ccn([C@@H]2O[C@H](CO)[C@@H](O)C2(F)F)c(=O)n1` [Gemcitabine]: the “absolute EC50 for viability” value in assay [1] is > 1000 nM. Also, the drug sensitivity score in assay [2] came to 4.5.

With `CCc1nc(C(N)=O)c(Nc2ccc(N3CCC(N4CCN(C)CC4)CC3)c(OC)c2)nc1NC1CCOCC1` [Gilteritinib], the “absolute EC50 for viability” value in assay [1] was > 1000 nM. The compound further came in with a drug sensitivity score in assay [2] of 0.8.

As to `CCN(CC)Cc1ccc2cc(COC(=O)Nc3ccc(C(=O)NO)cc3)ccc2c1` [Givinostat], the “absolute EC50 for viability” value in assay [1] is > 1000 nM. Also, the drug sensitivity score in assay [2] is 3.6.

Turning to `CN1CC[C@@H](NC(=O)Nc2ccc(C#N)cc2)C[C@@H]1c1nc2ccccc2[nH]1` [Glasdegib], in assay [1], the “absolute EC50 for viability” value was > 1000 nM. The compound further displayed a drug sensitivity score in assay [2] of 0.

With `COCCNCc1ccc(-c2cc3nccc(Oc4ccc(NC(=S)NC(=O)Cc5ccc(F)cc5)cc4F)c3s2)nc1` [Glesatinib], the “absolute EC50 for viability” value in assay [1] is > 2500 nM. The compound further yielded a drug sensitivity score in assay [2] of 5.1.

As to `CN1CCN(C2CCN(C(=O)Nc3cc(Oc4ccc(NC(=O)C5(C(=O)Nc6ccc(F)cc6)CC5)c(F)c4)ccn3)CC2)CC1` [Golvatinib], in assay [1], the “absolute EC50 for viability” value is > 2500 nM. The compound also came in with a drug sensitivity score in assay [2] of 2.7.

In the case of `CC(C)C[C@H](NC(=O)[C@@H](COC(C)(C)C)NC(=O)[C@H](Cc1ccc(O)cc1)NC(=O)[C@H](CO)NC(=O)[C@H](Cc1c[nH]c2ccccc12)NC(=O)[C@H](Cc1cnc[nH]1)NC(=O)[C@@H]1CCC(=O)N1)C(=O)N[C@@H](CCCNC(=N)N)C(=O)N1CCC[C@H]1C(=O)NNC(N)=O` [Goserelin], the “absolute EC50 for viability” value in assay [1] is > 10000 nM. Moreover, in assay [2], the drug sensitivity score was 0.
